According to PubChem BioAssay AID2060627 (Molecular Pharmacology Branch, DTP, NCI, 2025):

System: 156681-154-R-J1-PDC complex spheroid viability
Assay: Anticancer human tumor 156681-154-R-J1-PDC patient-derived melanoma cell line growth inhibition [CLK]
Details: for IC50: curve of first compound; for viability, T/C: stronger effect = lower value
Excerpt: A high-throughput screen of multi-cell type tumor spheroids was designed to identify active combinations of […] and targeted small molecules. Complex spheroids include a stromal component modeled by human endothelial cells (HUVEC) and fibroblasts modeled by human mesenchymal stem cells (MSCs). The concentration ranges selected for each drug and investigational agent were based upon clinically achievable concentrations if the clinical Cmax of the agent was known.
Compounds. The drugs and investigational agents: cirtuvivint (SM08502; NSC835563), CC-671 (NSC850746), vemurafenib (NSC761431), tapotoclax (NSC804041), sotorasib (NSC818433), adagrasib (NSC831453), MRTX-1133 (NSC836407), BAY2416964 (NSC825713), copanlisib (NSC816437), inavolisib (NSC800729), abemaciclib (NSC768073), osimertinib (NSC779217), entinostat (NSC756642), eltanexor (KPT-8602, NSC794443), venetoclax (NSC766270), ceralasertib (NSC777638), bortezomib (NSC756655), olaparib (NSC753686), talazoparib (NSC767125), alisertib (NSC759677), peposertib (NSC802822), gemcitabine (NSC613327), 5-fluorouracil (NSC19893), SN-38 (NSC673596), oxaliplatin (NSC266046), paclitaxel (NSC125973), and doxorubicin (NSC123127), were obtained from the National Cancer Institute (NCI) Developmental Therapeutics Program Chemical Repository. The FDA-approved anticancer drug set is available from the Developmental Therapeutics Program at https://dtp.cancer.gov/organization/dscb/obtaining/available plates.htm. […] The stock solutions were prepared in dimethyl sulfoxide (DMSO, Sigma-Aldrich, St. Louis, MO, cat. D2650), except for the platinum complexes which were prepared in saline (Quality Biological, Gaithersburg, MD, cat. 114-055-101), at 800-fold the tested concentration and stored at -70 degrees C prior to their use. All drugs and investigational agents were tested over a range starting from a high concentration at or near the clinical Cmax and decreasing in half-log increments. If the clinical Cmax for an agent had not been determined, the highest concentration tested was 10 microM.
Cell Culture. All cells were maintained in an incubator at 37 degrees C and 5% CO2 with 95% humidity. The PDC lines were cultured according to standard operating procedures established by the NCI PDMR. Briefly, all PDCs were thawed and cultured in Matrigel-coated flasks prepared with a working solution of 1X Ham's F-12 nutrient mix, without supplementation (Invitrogen, Waltham, MA, cat. 11765054), 100 U/mL penicillin-streptomycin (Invitrogen, cat. 15140122), and 2.5% Matrigel (Corning Inc., Corning, NY, cat. 354248) for the first three passages. The 947758-054-R-J2-PDC line was cultured in 6B/Colon 1A media, which includes advanced DMEM/F-12 (Thermo Fisher Scientific, cat. 12634028), 10 mM HEPES (Thermo Fisher Scientific, cat. 15630080), 1X GlutaMAX supplement (Thermo Fisher Scientific, cat. 35050061), 0.1 mg/mL primocin (InvivoGen, cat. ant-pm-2), 10% defined fetal bovine serum, heat inactivated (HyClone Laboratories Inc., cat. SH30070.03HI), 1.25 mM N-Acetyl-L-cysteine (Sigma-Aldrich, cat. A9165), 10 mM nicotinamide (Sigma-Aldrich, cat. N0636), 1X B-27 supplement (Thermo Fisher Scientific, cat. 17504044), 1X N-2 supplement (Thermo Fisher Scientific, cat. 17502048), and 10 microM Y-27632 dihydrochloride (Tocris Bioscience, cat. 1254). The 876862-298-R-J1-PDC was cultured in 6E media, which includes all 6B/Colon 1A media components plus 50% L-WRN conditioned media (ATCC, cat. CRL-3276), 50 ng/mL recombinant human EGF recombinant protein (hEGF; Thermo Fisher Scientific, cat. PHG0311), 10 ng/mL recombinant human fibroblast growth factor 10 (hGFG-10; PeproTech, cat. 100-26), 1 ng/mL recombinant human fibroblast growth factor 2 (hFGF-2; PeproTech, cat. 100-18B), and 1 µM prostaglandin E2 (PGE2; Tocris, cat. 2296). The 227483-062-R1-J1-PDC line was cultured in Panc media, containing all 6E components except hFGF-2, with the addition of 500 nM SB-431542 (Selleckchem, cat. S1067) and 10 nM gastrin (Tocris, cat. 3006). […]

[1] = second compound 0.0316 µM, first compound 0.0316 µM
[2] = second compound 0.0316 µM, first compound 0.1 µM
[3] = second compound 0.0316 µM, first compound 0.316 µM
[4] = second compound 0.0316 µM, first compound 1 µM
[5] = second compound 0.1 µM, first compound 0.0316 µM
[6] = second compound 0.1 µM, first compound 0.1 µM
[7] = second compound 0.1 µM, first compound 0.316 µM
[8] = second compound 0.1 µM, first compound 1 µM
[9] = second compound 0.316 µM, first compound 0.0316 µM
[10] = second compound 0.316 µM, first compound 0.1 µM
[11] = second compound 0.316 µM, first compound 0.316 µM
[12] = second compound 0.316 µM, first compound 1 µM
[13] = second compound 1 µM, first compound 0.0316 µM
[14] = second compound 1 µM, first compound 0.1 µM
[15] = second compound 1 µM, first compound 0.316 µM
[16] = second compound 1 µM, first compound 1 µM
[17] = second compound 3.16 µM, first compound 0.0316 µM
[18] = second compound 3.16 µM, first compound 0.1 µM
[19] = second compound 3.16 µM, first compound 0.316 µM
[20] = second compound 3.16 µM, first compound 1 µM
[21] = second compound 10 µM, first compound 0.0316 µM
[22] = second compound 10 µM, first compound 0.1 µM
[23] = second compound 10 µM, first compound 0.316 µM
[24] = second compound 10 µM, first compound 1 µM
[25] = second compound 0.0316 µM, first compound 3.16 µM
[26] = second compound 0.0316 µM, first compound 10 µM
[27] = second compound 0.1 µM, first compound 3.16 µM
[28] = second compound 0.1 µM, first compound 10 µM
[29] = second compound 0.316 µM, first compound 3.16 µM
[30] = second compound 0.316 µM, first compound 10 µM
[31] = second compound 1 µM, first compound 3.16 µM
[32] = second compound 1 µM, first compound 10 µM
[33] = second compound 3.16 µM, first compound 3.16 µM
[34] = second compound 3.16 µM, first compound 10 µM
[35] = second compound 10 µM, first compound 3.16 µM
[36] = second compound 10 µM, first compound 10 µM
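Further: spheroids exposed to the agents for seven days.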
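Wherever viability, T/C is given: 100% = DMSO vehicle control viability.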

CCc1c2c(nc3ccc(O)cc13)-c1cc3c(c(=O)n1C2)COC(=O)[C@]3(O)CC + CNC(=O)c1ccc(Nc2nc(OC3CCCC3)c3c(-c4ccc5nc(C)oc5c4)c[nH]c3n2)c(OC)c1
IC50 (second compound 0.0316 µM): < 3.16 nM
IC50 (second compound 0.1 µM): < 3.16 nM
IC50 (second compound 0.316 µM): < 3.16 nM
IC50 (second compound 1 µM): < 3.16 nM
IC50 (second compound 3.16 µM): < 3.16 nM
IC50 (second compound 10 µM): < 3.16 nM
viability, T/C (second compound 0.0316 µM, first compound 0.00316 µM): 27.7%
viability, T/C (second compound 0.0316 µM, first compound 0.01 µM): 15%
viability, T/C [1]: 18%
viability, T/C [2]: 19.4%
viability, T/C [3]: 16.6%
viability, T/C [4]: 4.47%
viability, T/C (second compound 0.1 µM, first compound 0.00316 µM): 24.1%
viability, T/C (second compound 0.1 µM, first compound 0.01 µM): 16.7%
viability, T/C [5]: 14%
viability, T/C [6]: 17.7%
viability, T/C [7]: 14.9%
viability, T/C [8]: 5.02%
viability, T/C (second compound 0.316 µM, first compound 0.00316 µM): 27.4%
viability, T/C (second compound 0.316 µM, first compound 0.01 µM): 14.2%
viability, T/C [9]: 12.8%
viability, T/C [10]: 16.4%
viability, T/C [11]: 14.8%
viability, T/C [12]: 5.29%
viability, T/C (second compound 1 µM, first compound 0.00316 µM): 21.9%
viability, T/C (second compound 1 µM, first compound 0.01 µM): 11.3%
viability, T/C [13]: 10.5%
viability, T/C [14]: 14.7%
viability, T/C [15]: 9.49%
viability, T/C [16]: 5.41%
viability, T/C (second compound 3.16 µM, first compound 0.00316 µM): 20.9%
viability, T/C (second compound 3.16 µM, first compound 0.01 µM): 15.8%
viability, T/C [17]: 10.4%
viability, T/C [18]: 14.2%
viability, T/C [19]: 13.1%
viability, T/C [20]: 2.05%
viability, T/C (second compound 10 µM, first compound 0.00316 µM): 18.9%
viability, T/C (second compound 10 µM, first compound 0.01 µM): 12%
viability, T/C [21]: 11.1%
viability, T/C [22]: 12.5%
viability, T/C [23]: 9.62%
viability, T/C [24]: 1.61%

COc1ccc([C@@H](O)c2cc(-c3ncnc4cc(N5CCOCC5)ccc34)c(F)cc2Cl)nn1 + CNC(=O)c1ccc(Nc2nc(OC3CCCC3)c3c(-c4ccc5nc(C)oc5c4)c[nH]c3n2)c(OC)c1
IC50 (second compound 0.0316 µM): 1910 nM
IC50 (second compound 0.1 µM): 1480 nM
IC50 (second compound 0.316 µM): 1100 nM
IC50 (second compound 1 µM): 116 nM
IC50 (second compound 3.16 µM): < 31.6 nM
IC50 (second compound 10 µM): < 31.6 nM
viability, T/C [1]: 80.7%
viability, T/C [2]: 97.2%
viability, T/C [3]: 87.8%
viability, T/C [4]: 69.8%
viability, T/C [25]: 34.6%
viability, T/C [26]: 29%
viability, T/C [5]: 44.7%
viability, T/C [6]: 64.6%
viability, T/C [7]: 52.2%
viability, T/C [8]: 56.8%
viability, T/C [27]: 41.2%
viability, T/C [28]: 21.3%
viability, T/C [9]: 59.5%
viability, T/C [10]: 62%
viability, T/C [11]: 50.9%
viability, T/C [12]: 52.9%
viability, T/C [29]: 28.4%
viability, T/C [30]: 20.7%
viability, T/C [13]: 50.8%
viability, T/C [14]: 55.6%
viability, T/C [15]: 47.7%
viability, T/C [16]: 29.2%
viability, T/C [31]: 32.8%
viability, T/C [32]: 9.5%
viability, T/C [17]: 46.8%
viability, T/C [18]: 47.6%
viability, T/C [19]: 37.1%
viability, T/C [20]: 33.7%
viability, T/C [33]: 29.7%
viability, T/C [34]: 5.99%
viability, T/C [21]: 39.3%
viability, T/C [22]: 30%
viability, T/C [23]: 29.9%
viability, T/C [24]: 28%
viability, T/C [35]: 18.9%
viability, T/C [36]: 2.83%

CCCS(=O)(=O)Nc1ccc(F)c(C(=O)c2c[nH]c3ncc(-c4ccc(Cl)cc4)cc23)c1F + CN1CCN(c2cc(C(=O)Nc3cc4cc(-c5cnn(C)c5)ccc4cn3)ccn2)CC1
IC50 (second compound 0.0316 µM): 6050 nM
IC50 (second compound 0.1 µM): 4960 nM
IC50 (second compound 0.316 µM): < 31.6 nM
IC50 (second compound 1 µM): < 31.6 nM
IC50 (second compound 3.16 µM): < 31.6 nM
IC50 (second compound 10 µM): < 31.6 nM
viability, T/C [1]: 95.2%
viability, T/C [2]: 88.7%
viability, T/C [3]: 104%
viability, T/C [4]: 94.7%
viability, T/C [25]: 99.7%
viability, T/C [26]: 13.9%
viability, T/C [5]: 88.3%
viability, T/C [6]: 80.8%
viability, T/C [7]: 76.7%
viability, T/C [8]: 85%
viability, T/C [27]: 74.8%
viability, T/C [28]: 11.3%
viability, T/C [9]: 25.4%
viability, T/C [10]: 19.6%
viability, T/C [11]: 28.6%
viability, T/C [12]: 29.9%
viability, T/C [29]: 24.9%
viability, T/C [30]: 3.74%
viability, T/C [13]: 0.19%
viability, T/C [14]: 0.44%
viability, T/C [15]: 0.19%
viability, T/C [16]: 0.14%
viability, T/C [31]: 0.12%
viability, T/C [32]: 0.13%
viability, T/C [17]: 0.3%
viability, T/C [18]: 0.48%
viability, T/C [19]: 0.11%
viability, T/C [20]: 0.27%
viability, T/C [33]: 3.96%
viability, T/C [34]: 0.11%
viability, T/C [21]: 0.13%
viability, T/C [22]: 1.59%
viability, T/C [23]: 0.27%
viability, T/C [24]: 0.21%
viability, T/C [35]: 3.86%
viability, T/C [36]: 0.17%
